The structures appear in SMILES notation.

The values that follow come from patent publication US20220041616A1, “SPIRO COMPOUND AND MEDICAL USES THEREOF” (The National Institutes of Pharmaceutical R&D Co., Ltd., priority 2018, published 2022).

The assay concerns the target T1, Pyruvate Carboxylase (PC) (Bos taurus, UniProt Q29RK2).
T1 construct: purchased Sigma
T1 sequence (Q29RK2 21-1178): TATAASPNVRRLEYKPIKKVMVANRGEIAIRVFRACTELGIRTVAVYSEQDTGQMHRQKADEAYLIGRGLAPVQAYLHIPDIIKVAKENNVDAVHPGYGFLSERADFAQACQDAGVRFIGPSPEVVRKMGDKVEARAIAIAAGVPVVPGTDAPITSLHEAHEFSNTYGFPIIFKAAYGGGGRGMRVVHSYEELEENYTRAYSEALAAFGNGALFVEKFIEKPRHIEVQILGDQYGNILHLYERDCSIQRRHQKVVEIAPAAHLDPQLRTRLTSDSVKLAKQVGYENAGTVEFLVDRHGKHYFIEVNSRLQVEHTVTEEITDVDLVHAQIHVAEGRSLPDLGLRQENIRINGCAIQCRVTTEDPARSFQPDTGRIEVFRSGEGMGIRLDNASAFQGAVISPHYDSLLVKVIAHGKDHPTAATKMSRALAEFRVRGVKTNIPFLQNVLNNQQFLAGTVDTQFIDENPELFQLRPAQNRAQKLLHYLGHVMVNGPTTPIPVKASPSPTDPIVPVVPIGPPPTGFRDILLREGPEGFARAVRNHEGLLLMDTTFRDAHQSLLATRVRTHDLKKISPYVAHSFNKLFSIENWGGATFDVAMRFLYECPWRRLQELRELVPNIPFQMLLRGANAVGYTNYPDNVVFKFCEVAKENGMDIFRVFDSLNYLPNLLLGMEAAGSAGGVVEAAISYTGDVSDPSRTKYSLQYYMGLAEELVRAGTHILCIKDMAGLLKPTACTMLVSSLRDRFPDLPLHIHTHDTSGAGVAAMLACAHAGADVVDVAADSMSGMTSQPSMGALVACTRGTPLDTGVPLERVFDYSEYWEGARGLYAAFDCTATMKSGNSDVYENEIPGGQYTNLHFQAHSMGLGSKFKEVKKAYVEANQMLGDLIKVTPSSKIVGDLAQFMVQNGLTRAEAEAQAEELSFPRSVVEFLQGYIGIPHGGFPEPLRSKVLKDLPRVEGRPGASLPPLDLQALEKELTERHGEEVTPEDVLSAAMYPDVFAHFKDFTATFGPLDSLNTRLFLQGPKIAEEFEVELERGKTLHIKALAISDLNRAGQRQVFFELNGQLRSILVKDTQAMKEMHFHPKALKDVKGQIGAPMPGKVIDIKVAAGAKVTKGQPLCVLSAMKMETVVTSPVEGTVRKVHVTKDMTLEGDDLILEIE
Briefly: In vitro inhibition of pyruvate carboxylase (PC) activity, coupling method. Format: biochemical. As to conditions: top concentration 50 μM. The protocol:
The in vitro analysis of the inhibitory effect of the present compound on PC activity was carried out by a coupling method. The PC reaction product oxaloacetate and β-NADH undergo a redox reaction under the catalysis of malate dehydrogenase, generating malic acid and NAD^+. Accordingly, the inhibition ability of the compound on PC can be reflected by detecting the change of absorbance value at 340 nm.
b. 65.7 μL PC enzyme reaction buffer (201 mM triethanolamine, 7.5 mM magnesium sulfate, 0.18% bovine serum albumin) was added to each well of a 96-well dilution plate (249944, Nunc), and then 1 μL of the serially diluted compound to be tested in step a was added to each well.
c. 10 μL of compound (prepared in step b) was added to each well of a 384-well test plate (3702, Corning). The reaction system with ZnCl2 at a final concentration of 500 μM was used as positive control; the reaction system with no compound but DMSO at a final concentration of 0.5% was used as negative control.
d. 10 μL of PC enzyme (Sigma, 0.15 U/ml stock solution of PC enzyme dissolved in 0.15 mM Tris-HCl pH 7.4, 0.006 mM Mg(AcO)2, 0.15% glycerol, and 0.003 mM EDTA) was added to each well of the 384-well test plate (prepared in step c), centrifuged at 1000 rpm for 1 min, and incubated at room temperature for 15 min.
e. 10 μL of substrate mixture (1.5 mM sodium pyruvate, 1.5 mM ATP, 0.15 mM acetyl-CoA, 45 mM sodium bicarbonate, 0.69 mM NADH, 3 U/ml malate dehydrogenase, 201 mM triethanolamine, 7.5 mM magnesium sulfate, and 0.18% bovine serum albumin) was added to each well of the 384-well test plate (prepared in step d), and centrifuged at 1000 rpm for 1 min. The final concentrations of each component in the PC enzymatic reaction system: 0.05 U/ml pyruvate carboxylase, 0.5 mM sodium pyruvate, 0.5 mM ATP, 15 mM sodium bicarbonate, 0.23 mM β-NADH, 1 U/ml malic acid dehydrogenase, and 0.05 mM acetyl-CoA. Test compound concentrations: 50 μM, 16.667 μM, 5.556 μM, 1.852 μM, 0.617 μM, 0.206 μM, 0.0686 μM, 0.0229 μM, 0.00763 μM, 0.00254 μM, 0.000847 μM and 0.000282 μM. The final concentration of DMSO was 0.5% (v/v).
f. The absorbance at 340 nm was read by using EnVision 2104 plate reader (Perkin Elmer) with reading every 1 min for 40 min.
GraphPad Prism 6 software was used to perform a linear fit, and the concentration of each compound and the slope of the positive and negative controls were calculated. The inhibition percentage was calculated according to the following formula: 100×[1−(compound−average value of positive control)/(average value of negative control−average value of positive control)].
IC50 of the compound was obtained using GraphPad Prism 6 software according to the following nonlinear fitting formula:
Y=Bottom+(Top−Bottom)/(1+10^((Log IC50−X)×HillSlope)), […]
The IC50 is the midpoint of a concentration-inhibition curve. Low readings indicate greater potency, high ones weaker potency. As to `COc1ccccc1C(CN1C(=O)C2(CC(C(=O)O)C2)C(=O)c2c1sc(-c1ncco1)c2C)OC1CCOCC1` (mixture of isomers) [Compound 8, 7′-(2-(2-methoxyphenyl)-2-((tetrahydro-2H-pyran-4-yl)oxy)ethyl)-3′-methyl-2′-(oxazol-2-yl)-4′,6′-dioxo-6′,7′-dihydro-4′H-spiro[cyclobutane-1,5′-thieno[2,3-b]pyridine]-3-carboxylic Acid], the concentration for half-maximal inhibition (IC50) is above 50 µM.
Take `COc1ccccc1C(CN1C(=O)C2(CCC(C(=O)O)C2)C(=O)c2c1sc(-c1ncco1)c2C)OC1CCOCC1` (single isomer, unassigned) [Compound 5b, 7′-(2-(2-methoxyphenyl)-2-((tetrahydro-2H-pyran-4-yl)oxy)ethyl)-3′-methyl-2′-(oxazol-2-yl)-4′,6′-dioxo-6′,7′-dihydro-4′H-spiro[cyclopentane-1,5′-thieno[2,3-b]pyridine]-3-carboxylic Acid]: the IC50 was above 50 µM.
Compound `COc1ccccc1C(CN1C(=O)C2(CC(C(=O)O)C2)C(=O)c2c1sc(-c1ncco1)c2C)OC1CCOCC1` (single isomer, unassigned) [Compound 8d, 7′-(2-(2-methoxyphenyl)-2-((tetrahydro-2H-pyran-4-yl)oxy)ethyl)-3′-methyl-2′-(oxazol-2-yl)-4′,6′-dioxo-6′,7′-dihydro-4′H-spiro[cyclobutane-1,5′-thieno[2,3-b]pyridine]-3-carboxylic Acid] displayed an IC50 above 50 µM.
To `COc1ccccc1[C@H](CN1c2sc(-c3ncco3)c(C)c2C(=O)[C@]2(C[C@H](C(=O)O)C2)C1=O)OC1CCOCC1` [Compound 8c, 7′-(2-(2-methoxyphenyl)-2-((tetrahydro-2H-pyran-4-yl)oxy)ethyl)-3′-methyl-2′-(oxazol-2-yl)-4′,6′-dioxo-6′,7′-dihydro-4′H-spiro[cyclobutane-1,5′-thieno[2,3-b]pyridine]-3-carboxylic Acid] belongs above 50 µM.
